Our source for the viability values is the supplement of paper PMC6723410.

The first assay concerns GUMC-403. Put plainly: viability at highest tested concentration (max response) relative to DMSO (% of DMSO control); higher = less cytotoxic. The following applies: library / dose series: MIPE library, 11-point 1:3 dilution; top concentration 23 µM; 48 h. Summed up: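 This value is viability at the highest tested concentration relative to vehicle control. GUMC-403 papilloma cells from a patient, grown by conditional reprogramming, were plated at 700/well in 1536-well plates and given 23 nL of compound by pin tool for 48 h. CellTiter-Glo luminescence on a ViewLux was normalised with vehicle wells at 100% and empty wells at 0%.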
`COc1cc(O)c2c(c1)C(=O)c1cc(C)cc(O)c1C2=O` returned a viability of 114.

The same assay, now with this note: library / dose series: MIPE library, 11-point 1:3 dilution; top concentration 46.1 µM; 48 h.
Regarding `CC1(C)CCC(=C(\C1)C2=CC=C(Cl)C=C2)/CN3CCN(CC3)C4=CC(=C(C=C4)C(=O)N[S+]([O-])(=O)C5=CC=C(NCC6CCOCC6)C(=C5)[N+]([O-])=O)OC7=CN=C8[NH]C=CC8=C7`, the viability was 105. `CC(NC1=CC=CC=C1)C\2=C\C(=C/N3C(=O)\C=C(/N=C23)N4CCOCC4)C` (stereo unspecified): the viability amounted to 79.7. For `C/C=C/C[C@@H](C)C(=O)[C@H]1C(=O)N[C@@H](C(C)C)C(=O)N(C)CC(=O)N(C)[C@@H](CC(C)C)C(=O)N[C@@H](C(C)C)C(=O)N(C)[C@@H](CC(C)C)C(=O)N[C@@H](C)C(=O)N[C@H](C)C(=O)N(C)[C@@H](CC(C)C)C(=O)N(C)[C@@H](CC(C)C)C(=O)N(C)[C@@H](C(C)C)C(=O)N1C`, the viability turned out to be 90.6. Consider `CCCCn1c(=O)n(Cc2ccccc2F)c(=O)c2nc(Cc3ccc(NC(C)=O)cc3)[nH]c21`, for which the viability was found to be 94.

`CN(C)C1=C(Br)C=C(C=C1)C\2NC3=C(\C4=C2C(=O)CC(C)(C)C4)C5=CC=CC=C5C=C3` (stereo unspecified) returned a viability of 99.8. The compound `CCOC(=O)/C=C/[C@H](C[C@@H]1CCNC1=O)NC(=O)[C@@H](CC(=O)[C@@H](NC(=O)c1cc(C)on1)C(C)C)Cc1ccc(F)cc1` returned a viability of 142. In turn, `Cc1csc(NC(=O)c2sc3nc4c(c(C(F)(F)F)c3c2N)CCC4)n1` had a viability of 94.1. Compound `CCn1c(-c2nonc2N)nc2cnc(Oc3cccc(NC(=O)c4ccc(OCCN5CCOCC5)cc4)c3)cc21` returned a viability of 65.4. Still for that read-out and setting: next, `CON(C)C(=O)N1\N=C(/S[C@]1(CCCN)C2=CC=CC=C2)C3=CC(=CC=C3F)F`: 116; `Cc1nc(-c2ccc(-c3ccc(C(=O)N4CCc5cc6c(cc54)C4(CCN(C)CC4)CO6)cc3)c(C)c2)no1`: 124.

Take `CCOC(=O)[C@H](CCc1ccccc1)N[C@H]1CS[C@H](c2cccs2)CN(CC(=O)O)C1=O.Cl`: the viability stood at 118. Consider `CCCC[N+]1(C)[C@@H]2CC(OC(=O)[C@H](CO)c3ccccc3)C[C@H]1[C@@H]1O[C@@H]12` (stereo partly specified), for which the viability stood at 114.

As to `COc1cccc2c1CCCC2CCCN1CCN(C2CCCCC2)CC1` (stereo unspecified), the viability was 112. Still for that read-out and setting: as for `CC1SC/2=C(C(O)=O)/C(=O)C3=CC(=C(C=C3N12)N4CCN(CC4)C\C5=C(C)\OC(=O)O5)F` (stereo unspecified), the figure is 112; as for `COc1ccc(OC)c(-c2nnc3ccc(-c4ccc(OC)c(O[C@@H]5CCOC5)c4)nn23)c1`, 4.61. Compound `NCCCCNCCCN` displayed a viability of 121. The same measure, in the same setting: next, `CC1CNc2c(cccc2[S+](=O)([O-])N[C@@H](CCCNC(=N)N)C(=O)N2CC[C@@H](C)C[C@@H]2C(=O)O)C1` (stereo partly specified): 125. For the compound `NC/1=N/C2=C([NH]C=N2)C(=S)N1`, the viability was 97.1. Compound `CC1(C)O[C@@H]2C[C@H]3[C@@H]4C[C@H](F)C5=CC(=O)C=C[C@]5(C)[C@@]4(F)[C@@H](O)C[C@]3(C)[C@]2(C(=O)CO)O1` showed a viability of 109. With `Cn1cnc(N)c2ncnc1-2`, the viability worked out at 82.9. For the compound `COC1=CC=CC2=C1C(=NC(=N2)C3=CC=CS3)NN4C(=O)\C=C(C)/C4=O`, the viability was found to be 80. On the same count and under the same terms, next, `CC1(C)CC(O)CC(C)(C)N1[O]`: 121. With `N[C@@H]1CONC1=O`, the viability came to 127. `CC(=O)OC\C1=C(\[N@]2[C@@H](SC1)[C@H](N)C2=O)C(O)=O` displayed a viability of 143. `C[N+]1(C)[C@@H]2C[C@@H](OC(=O)[C@H](CO)c3ccccc3)C[C@H]1[C@@H]1O[C@@H]12.[Br-]`: the viability is 120. Compound `N=C(N)c1ccc(OCCCCCOc2ccc(C(=N)N)cc2)cc1` showed a viability of 101. Compound `CN(C)C(=O)C(CCN1CCC(O)(c2ccc(Cl)cc2)CC1)(c1ccccc1)c1ccccc1` had a viability of 103. On to `Cc1cc(OCCC[S+](C)(=O)[O-])cc(C)c1-c1cccc(COc2ccc3c(c2)OC[C@H]3CC(=O)O)c1`, for which the viability turned out to be 112. As to `COc1cc2nccc(Oc3ccc(NC(=O)C4(C(=O)Nc5ccc(F)cc5)CC4)cc3)c2cc1OC`, the viability amounted to 63.3.

The compound `Cl.Nc1ccn([C@@H]2O[C@H](CO)[C@@H](O)C2(F)F)c(=O)n1` registered a viability of 107. As to `CC(/C=C1\SC(=S)N(CC(=O)O)C1=O)=C\c1ccccc1`, the viability amounted to 132.

On to `CC(Cc1ccc(O)c(O)c1)(NN)C(=O)O` (stereo unspecified), for which the viability is 96. On to `O=C(O)c1nn(Cc2ccc(Cl)cc2Cl)c2ccccc12`, for which the viability was found to be 99.7. With `Cc1cnc(NC(=O)Nc2cc(Br)c(C)cc2OC[C@@H]2CNCCO2)cn1`, the viability came to 110. `COCCOC(=O)C/1=C(C)/NC/2=C(C1C3=CC=CC(=C3)O)/C(=O)CC(C2)C4=C(OC)C=CC=C4` (stereo unspecified) came in with a viability of 79.8. Turning to `CN(C1CCc2c(c3ccccc3n2CC(=O)O)C1)[S+](=O)([O-])c1ccc(F)cc1` (stereo unspecified), the viability stood at 114. `C=CC(=O)Nc1cc2c(Nc3ccc(F)c(Cl)c3)ncnc2cc1OCCCN1CCOCC1` returned a viability of 81.6.

With `CO/C1=C/C(C)=C\[C@@H](C)[C@@H](O)[C@@H](C)C/C(C)=C\C=C/[C@H](OC)[C@@H]([C@@H](C)[C@@H](O)[C@H](C)[C@@]2(O)C[C@@H](O)[C@H](C)[C@@H](C(C)C)O2)OC1=O`, the viability stood at 93.

Regarding `Nc1ncnc2nc(-c3ccc(N4CCOCC4)nc3)cc(-c3cccc(Br)c3)c12`, the viability is 110.

For the compound `O=c1[nH]c(=O)n([C@H]2C[C@H](O)[C@@H](CO)O2)cc1/C=C/Br`, the viability was 116. `O=C(N[C@H]1CN2CCC1CC2)c1ccc(Cl)cc1` had a viability of 121. Turning to `O=C1NC(=O)[C@@H](c2cn3c4c(cccc24)CCC3)[C@@H]1c1c[nH]c2ccccc12`, the viability was 102. Turning to `C[C@@H]1[C@H]\2[C@H](O)[C@H]3[C@H](N(C)C)\C(=C(C(N)=O)/C(=O)[C@@]3(O)\C(=C2C(=O)C4=C(O)C=CC=C14)O)O`, the viability amounted to 98.3.

Consider `CC1OC(OC/2=C(/OC3=C(C(=CC(=C3)O)O)C2=O)C4=CC=C(O)C=C4)C(O)C(OC(C)=O)C1OC(C)=O` (stereo unspecified), for which the viability amounted to 116.

`COCCOc1ccc2c(c1)ncn2-c1ccc2cccc(N3CCC(N)CC3)c2n1` registered a viability of 87. With `CCN(CC)CCN1C(=O)\C(=N/C2=CC=CC=C12)CC3=CC=C(OC)C=C3`, the viability was determined as 129. As to `Cc1c[nH]c(/C=C2\C(=O)Nc3ccccc32)c1CCC(=O)O`, the viability stood at 136. `CCOC(=O)Nc1ccc(NCc2ccc(F)cc2)nc1N` showed a viability of 102. `COc1cc(Nc2ncc(F)c(Nc3ccc4c(n3)NC(=O)C(C)(C)O4)n2)cc(OC)c1OC` gave a viability of 89.6. Still for that read-out and setting: as for `CCOC(=O)C(C)OC1=CC=CC2=C1\C=C/N(CC(=O)NC3=CC=C4OCCOC4=C3)C2=O` (stereo unspecified), the figure is 105; as for `Cc1cnc(Nc2cccc(CN3CCOCC3)c2)nc1Nc1cccc([S+](=O)([O-])NC(C)(C)C)c1`, 101; as for `CCCNC(=O)[C@H]1O[C@@H]1C(=O)N[C@H](C(=O)N1CCC[C@H]1C(=O)OC)C(C)CC` (stereo partly specified), 109. As to `CN(C)CCOc1cc(-c2cn[nH]c2)ccc1NC(=O)C1COc2ccccc2O1` (stereo unspecified), the viability is 117. The compound `CC(c1cc2ccccc2s1)N(O)C(N)=O` (stereo unspecified) showed a viability of 96.7. `CO[C@@H]1[C@H](N(C)C(=O)c2ccccc2)C[C@H]2O[C@]1(C)n1c3ccccc3c3c4c(c5c6ccccc6n2c5c31)C(=O)NC4` showed a viability of 66.2. In the case of `CCCCc1ccc(N[S+](=O)([O-])c2ccc(C)c(C(=O)N3CCN(c4cccc(C)c4C)CC3)c2)cc1`, the viability worked out at 111. Compound `CNC[C@H](O)c1cccc(O)c1` had a viability of 139. As to `COc1cc(N[S+](=O)([O-])c2ccc(N)cc2)nc(OC)n1`, the viability was determined as 142.

Regarding `Oc1ccc(-c2nc(-c3ccncc3)c(-c3ccc(F)cc3)[nH]2)cc1`, the viability is 102. Still for that read-out and setting: next, `CN(C)[C@H]\1[C@@H]2[C@@H](O)[C@H]3\C(=C(O)/[C@]2(O)C(=O)\C(=C1O)C(N)=O)C(=O)C4=C(C=CC=C4O)[C@@]3(C)O`: 114; `Clc1ccc(C(c2ccccc2Cl)C(Cl)Cl)cc1` (stereo unspecified): 100. For the compound `CCCCC[C@H](O)/C=C/[C@H]1[C@H](O)CC(=O)[C@@H]1C/C=C\CCCC(=O)O`, the viability worked out at 119. With `C[C@H]1CC2C3CCC/4=C/C(=O)/C=C\[C@]4(C)[C@@]3(F)[C@@H](O)C[C@]2(C)[C@@]1(O)C(=O)CO` (stereo partly specified), the viability was 127. `CC1CCN(c2cc(N3CCN(C)CC3)ccc2NC(=O)c2cc(C#N)c[nH]2)CC1` showed a viability of 116.

`O=C(Nc1ncc(SCCN2CCCC2)s1)[C@]1(c2ccc([S+](=O)([O-])C3CC3)cc2)C[C@H]1C1CCCCC1`: the viability stood at 108. In turn, `Clc1cccc(-n2nnnc2NCc2ccccc2Oc2ccccn2)c1Cl` came in with a viability of 116. Turning to `OC[C@H]1O[C@H](C[C@@H]1O)N2\C=C(\I)C(=O)NC2=O`, the viability amounted to 127. Same read-out and setting: as for `CC[C@H](C)[N]1C=C(C)C2=C1C=C(C=C2C(=O)NC\C3=C(C)\C=C(\C)NC3=O)C4=CC=C(N=C4)N5CCNCC5`, the figure is 141.

The same assay, now with this note: library / dose series: MIPE library, 11-point 1:3 dilution; top concentration 92.2 µM; 48 h.
As for `CC(=O)Oc1ccccc1C(=O)Nc1ncc([N+](=O)[O-])s1`, the viability was found to be 82.2. Consider `C[C@@H]1CC[C@@]2(CC[C@]3(C)\C(=C/C[C@@H]4[C@@]5(C)CC[C@H](O)C(C)(C)[C@@H]5CC[C@@]34C)[C@@H]2[C@H]1C)C(O)=O`, for which the viability was 95.2.
